From patent publication US6495533B1, “Drugs containing phosphoric acid derivatives as the active ingredient” (Ono Pharmaceutical Co., Ltd., priority 1999, dated 2002) come the findings set out here.

The test system of the test is TNFα production. Kind of test: Measure of TNFα production inhibitory activity (serum TNFα after LPS challenge in mice). Format: in vivo. The conditions noted are these: female BALB/c mice, 7 weeks; test compound intravenous; LPS 100 μg/mouse intraperitoneal; blood 90 minutes after LPS; serum TNFα by ELISA; read-out: ED50 (50% effective dose) for inhibition of serum level of TNFα. The protocol:
(i) Measure of TNFα Production Inhibitory Activity
Measure of TNFα production inhibitory activity was prepared according to procedures described previously (Kazuo Ohuchi, SEIBUTSUKAGAKUJIKKENKOZA, 12, 707 (1994) Hirokawa, Tokyo). Female mice (BALB/c, 7 weeks) were injected with test compounds via intravenous administration and with LPS (100 μg/mouse) (Bacto W. E. coli 055:B5; DIFCO Lab.) via in traperitoneal administration. At 90 minutes after LPS challenge, blood with heparin was obtained from abdominal aorta, and serum was stored at −80° C. Serum level of TNFα was determined by mouse cytokine ELISA kit (Genzyme). Inhibition and 50% effective dose (ED50) of test compounds were calculated as 100% of the difference of serum level of TNFα between in control and in LPS. ED50 of some compounds produced by the following examples were 0.01-100 mg/kg.
A general note: ELISA stands for enzyme-linked immunosorbent assay.

One may read the ED50 as the dose at which the effect has come halfway, by size or by number of responders. Regarding `CCCCCCCC(=O)N[C@@H](COP(=O)(O)O)c1ccccc1` [example 8], the ED50 turned out to be 2.6 mg/kg.
